# Laboratory results from US6852698B2, “Free radical scavengers or promoters thereof as therapeutic adjuvants in preterm parturition” (priority 2000, dated 2005).
# Key:
# [1] = parameters: species or system mice; conditions: mouse, in vivo
# Experimental: We have experimentally investigated the transplacental passage of spin trapping compounds. Methodology: C57B16 mice were injected ip with 4 mmols/kg POBN [a-(4-pyridyl-1-oxide-N-t-butylnitrone)] on day 16 of pregnancy. Animals were sacrificed at different times after injection, 2-5 fetuses collected and lipids extracted as described by Brackett et al., 1989. Electron paramagnetic spectra were obtained in a Varian EPR spectrometer equipped with an X-band microwave bridge with center field set at 3376 Gauss and modulation frequency at 100 Hz. The extracts were examined before and after in vitro addition of a hydroxyl radical generating Fenton mixture (Fe^2++H2O2).
# MMP-9 = test: Gelatin zymography of medium from incubated human term amniochorionic membranes, MMP-9; format: cell-based; conditions: for Effect on the increase in MMP-9 induced by X/XO: X 2 mM + XO 20 mU/ml, SOD 500 U/ml
# Excerpt: (§1) Tissues: Full thickness amniochorionic membranes were collected from seven patients without complications of pregnancy undergoing elective C-section at term. The fragment collected was selected from a region at least 10 cm away from the placenta. Immediately after collection, membranes were placed in minimum essential medium (MEM) (Gibco, Grand Island, N.Y.) on ice. Tissue samples were then cut under sterile conditions with a scalpel blade into smaller pieces of similar size. Over the next 30 min., the pieces of membranes were rinsed thoroughly with several changes of MEM and then sterile phosphate buffered saline (PBS) pH=7.8. Preweighed amounts of tissue (approximately 500 mg) consisting of several pieces selected at random were placed in a CO2 incubator with a humidified chamber at 37° C. for 24 hours. Incubations were carried out in a total volume of 2 ml buffer. Both wet weight and dry weight of tissue pieces were determined after incubation and after drying overnight at 60° C., respectively. After incubation the culture-conditioned medium was collected, briefly spun at 1000 g to remove cellular debris and loaded directly on gelatin gels. The concentration of protein in the aliquots of medium was measured with a BCA kit (Pierce, Rockford, Ill.).
# Drugs and incubations: Incubations were performed in the presence of xanthine (X: 2 mM), xanthine oxidase (XO: 20 mU/ml), the combination xanthine+xanthine oxidase (X/XO), superoxide dismutase (SOD: 500 U/ml), X/XO/SOD, nitro-L-arginine (a nonspecific nitric oxide synthase inhibitor, LNA: 1 mM), X/XO/LNA, S-nitroso-N-acetyl penicillamine (a nitric oxide donor, SNAP 10 mM), X/XO/SNAP, N-acetyl cysteine (NAC: 0.1, 1, 10 mM), lipopolysaccharide (LPS 100 ng/ml). All chemicals were purchased from Sigma (St. Louis, Mo.) unless otherwise specified.
# SDS-Substrate gel electrophoresis (zymography): For detection of MMPs, equal volumes (15 μl) of conditioned medium (containing the activated MMPs) were mixed in a 1:3 ratio with substrate gel buffer (10% SDS, 4% sucrose, 0.25 M Tris-HCl, pH=6.8 and 0.1% bromphenol blue) and loaded directly onto gels without boiling (Raj agopalan et al., 1996 with modifications). Briefly, type I gelatin was added to a standard Laemmli 10% acrylamide polymerization mixture at a final concentration of 1 mg/ml. Following electrophoresis, the proteins in the gel were renatured by exchanging SDS with Triton X-100 and the gels were incubated overnight at 37° C. in 50 mM TRIS-HCl, pH=7.4 containing 10 mM CaCl2 and 0.05% Brij 35. At the end of the incubation, the gels were stained with 0.5% Coomassie Blue R-250 (Bio-Rad, Hercules, Calif.) in 40% methanol/10% acetic acid, then destained in 40% methanol/10% acetic acid for 1 h. Proteins having gelatinolytic activity appeared as discrete translucent areas of lytic activity on an otherwise blue gel. When the gels are incubated in parallel with 0.01 M EDTA, disappearance of lytic bands confirms the metal dependence of MMP activity. Migration of proteins was compared with that of prestained broad molecular weight markers (Bio-Rad). Further, 10 ng/lane of zymography standards (recombinant MMP-2/MMP-9, Calbiochem, La Jolla, Calif.) were run along with the samples. In order to quantify the gelatinolytic activity of MMPs, the wet gel was scanned on a GS-670 Image Densitometer (Bio-Rad), and analyzed using Multianalyst v1.1 volume quantification system software (Bio-Rad). […]
# extracellular O2− [2] = test: Cytochrome c reduction assay of the X/XO reaction; format: biochemical; conditions: SOD 500 U/ml
# Experimental: Extracellular superoxide anion generation: O2^− was generated enzymatically from the reaction between 2 mM xanthine (X) and 20 mU/ml xanthine oxidase (XO), as described by McCord and Fridovich (1969). Though these amounts are larger than those routinely used for in vitro generation of O2^− in cell-free experiments, we have based our decision on the presence of both XO and SOD in fetal membranes (Telfer et al., 1997) and on our assumption that the expression of these enzymes will change the efficiency of the X/XO reaction. As a result we monitored the efficiency of the X/XO reaction in our experimental setting by a cytochrome c assay, both in tissue-free conditions as well as in the presence of the tissue (Babior et al., 1973).
# [3] = system: superoxide anion in fetal membranes; test: Nitroblue tetrazolium (formazan) assay of superoxide generation in fetal membranes; format: cell-based, human
# Experimental: Intracellular superoxide anion generation: Pieces of fetal membranes were immersed in Krebs bicarbonate buffer (118 mM NaCl, 4.7 mM KCl, 1.18 MM MgSO4, 1.18 mM KH2PO4, 11.1 mM D-glucose, 0.016 mM EDTA, 2.2 mM CaCl2, 15.8 mM NaHCO3, pH=7.35−7.4) containing 1 mg/ml nitroblue tetrazolium (NBT), for 180 min. in the CO2 incubator with humidified chamber at 37° C. The soluble yellow form of NBT is reducedby O2.^− generated within the tissue to form an insoluble precipitate of blue-purple formazan. After incubation, the fetal membranes were washed in saline, photographed, placed in 4% formaldehyde and kept overnight in a refrigerator. Specimens were then embedded in OCT Tissue Tek embedding medium (Fisher Scientific, Pittsburgh, Pa.) and frozen in liquid nitrogen. The frozen specimens were cut by cryostat into 20 μm sections, mounted onto electrostatically treated-glass slides (Fisherbrand Superfrost Plus, Fisher Scientific) and counterstained with Neutral Red. They were immediately investigated by light microscopy using a Nikon Eclipse E1000M microscope connected to an MTI DC330 3CCD Color Camera (Dage MTI Inc., Michigan City, Mich.).
# MMP-2 = test: Gelatin zymography of medium from incubated human term amniochorionic membranes, MMP-2; format: cell-based
# Excerpt: as §1, with “Ill.). […]” for “Ill.).”
# SDS-Substrate gel electrophoresis (zymography): For detection of MMPs, equal volumes (15 μl) of conditioned medium (containing the activated MMPs) were mixed in a 1:3 ratio with substrate gel buffer (10% SDS, 4% sucrose, 0.25 M Tris-HCl, pH=6.8 and 0.1% bromphenol blue) and loaded directly onto gels without boiling (Raj agopalan et al., 1996 with modifications). […] In order to quantify the gelatinolytic activity of MMPs, the wet gel was scanned on a GS-670 Image Densitometer (Bio-Rad), and analyzed using Multianalyst v1.1 volume quantification system software (Bio-Rad). […]
# C57B16 inbred mice [4] = test: Fetal outcome (viability) in LPS-injected pregnant mice; format: in vivo; conditions: for Fetuses dead in utero: 16 h after LPS
# Experimental: (§2) Animals and treatments: C57B16 inbred mice were housed together with CD57/BL6 males under regular light and dark cycles, with stable ambient temperature conditions. The next morning the females were examined for the presence of a vaginal plug. The day of detection of the vaginal plug was designated as day 0. On day 16 of pregnancy the pregnant mice were injected i.p. with either 10 μg lipopolysaccharide (LPS: from E Coli 0111.:B4 from Calbiochem) or saline (controls). N-Acetylcysteine 1 g/kg (NAC: which is a membrane permeable GSH precursor, Sigma, St. Louis Mo. and direct antioxidant) was given p.o. by gavage 30 min before and 2 h after the LPS injection. NAC was diluted in phosphate buffered saline (PBS). After 12 hours the animals were inspected hourly for signs of parturition (posture, bleeding). The time between LPS injection and delivery of the first pup was defined as latency. Fetal viability at birth was recorded after tactile stimulation of the pup. To separate between the effect of prematurity on the fetus and the in utero consequence of endotoxin administration on the fetus, animals were sacrificed at 3, 6 and 16 hours after endotoxin injection in a separate set of experiments.
# glutathione = test: Total glutathione in maternal and fetal livers; format: in vivo, mice; conditions: 16 h
# Experimental: Measurement of total glutathione: Glutathione content was measured in maternal and fetal livers of animals treated with and without NAC and sacrificed at 3, 6 and 16 hours after LPS injection. Fetal livers were pooled from all fetuses of each pregnant animal, snap frozen in liquid nitrogen and stored at −80° C. until assayed. Briefly, the frozen tissue was rapidly homogenized in 7.5% trichloroacetic acid in a ratio of 1:20 (w/v). The homogenate was centrifuged at 3000 g for 10 min at 4° C. Total glutathione content was assayed in the supernatant by a colorimetric reaction that involves the formation of a chromophoric thione (Bioxytech GSH-420, Oxis Health Products, Portland, Oreg.) and was expressed in μg/ml by using oxidized glutathione standards and further normalized by the total protein content of the pellet. The protein pellet was solubilized in 0.1 N NaOH and its protein content was estimated using a BCA protein assay kit (Pierce, Rockford, Ill.).
# extracellular O2− [5] = test: Placental extracellular superoxide production (SOD-inhibitable NBT reduction); format: in vivo, mice
# Experimental: Placental extracellular superoxide production: Placental extracellular superoxide production was determined by the SOD-inhibitable reduction of nitroblue tetrazolium. Briefly, after sacrifice duplicate placentas where incubated each in 1 ml 1 mg/ml nitroblue tetrazolium (NBT) diluted in PBS, for 1 h. in a CO2 incubator with humidified chamber at 37° C. The soluble yellow form of NBT is reduced by O2.^− generated within the tissue to form an insoluble precipitate of blue-purple formazan that discolorates the tissue. Extracellular O2.^− produces a discoloration of the incubation medium. The incubation was performed in the presence and absence of SOD. The difference in absorbance at 655 nm normalized by the dry weight of placenta between the average of the duplicates in the presence and absence of SOD represents the SOD-inhibitable O2.^− production and was expressed in normalized arbitrary units.
# C57B16 inbred mice [6] = test: Timing of birth (latency) in LPS-injected pregnant mice; format: in vivo
# Experimental: as §2, with “N-Acetylcysteine 1 g/kg (NAC: which is a membrane permeable GSH precursor, Sigma, St. Louis Mo. and direct antioxidant) was given p.o. by gavage 30 min before and 2 h after the LPS injection.” left out
# [7] = addition of SOD, 3 hour incubation with NBT
# [8] = SNAP 10 mM, LNA 1 mM, data not shown
# [9] = 10 mM NAC, 24 h incubation of human term fetal membranes
# [10] = NAC 10 mM, human fetal membranes
molecule,measurement,setting,value
"CC(C)(C)[N+]([O-])=Cc1cc[n+]([O-])cc1 [POBN, a-(4-pyridyl-1-oxide-N-t-butylnitrone)]","Additional difference in magnitude of the EPR signal, fetus 6 h vs maternal liver 1 h or fetus 1 h",[1],10 fold
superoxide dismutase [SOD],Effect on the increase in MMP-9 induced by X/XO,MMP-9; human fetal membranes,reversed
same,Change in absorbance at 550 nm (cytochrome c reduction by X/XO),extracellular O2− [2],completely inhibited
same,Extracellular formazan formation induced by X/XO,[3]; [7],inhibited completely
same,Intracellular formazan formation induced by X/XO,[3]; [7],only partially
"CC(=O)N[C@H](C(=O)O)C(C)(C)SN=O [SNAP, S-nitroso-N-acetyl penicillamine]",Effect on fetal membrane MMP activity (MMP-2),MMP-2; [8],nor the NO donor SNAP had any significant effect
same,Effect on fetal membrane MMP activity (MMP-9),MMP-9; [8],nor the NO donor SNAP had any significant effect
"CC(=O)N[C@@H](CS)C(=O)O [NAC, N-acetylcysteine]","MMP-2 activity, % of the levels from the CRL tissue",MMP-2; [9],20%
same,Effect on MMP-2 in the presence and absence of LPS,MMP-2; [10],dramatically inhibited
same,"MMP-9 activity, % of the levels from the CRL tissue",MMP-9; [9],20%
same,Effect on MMP-9 in the presence and absence of LPS,MMP-9; [10],dramatically inhibited
same,Effect on the increase in MMP-9 induced by X/XO,MMP-9; human fetal membranes,prevented the increase in MMP-9
same,Fetuses dead in utero,"C57B16 inbred mice [4]; group that received LPS plus NAC, p=0.006 vs LPS group",37%
same,Proportion of pups born alive,C57B16 inbred mice [4]; mice given NAC before and after LPS,statistically significant increase
same,Maternal liver GSH,"glutathione; LPS-treated pregnant mice, NAC p.o.",prevented the decrease
same,Fetal liver GSH content,"glutathione; fetuses of LPS-injected mice, maternal NAC p.o.",not different from either CRL or LPS
same,Formazan formation in the incubated tissue (macroscopic),"[3]; NAC 10 mM, 3 hour incubation with NBT",completely abolished
same,Formazan deposits by light microscopy (intracellular O2− formation),[3]; tissues exposed to NAC,no formazan deposits
same,Effect on the LPS-induced increase in placental extracellular O2− production,"extracellular O2− [5]; LPS plus NAC, 3 hours",not seen
same,Latency compared statistically with CRL and LPS groups,C57B16 inbred mice [6]; LPS plus NAC,no longer different from either CRL or LPS animals
same,Latency period (LPS injection until delivery),"C57B16 inbred mice [6]; LPS plus two doses of 1 mg/kg NAC per os, 1 h before and 2 h after LPS, n=12",35.13 ± 6.41 h
same,Kaplan-Maier survival analysis of cumulative birth rates,C57B16 inbred mice [6]; LPS-injected mice with or without NAC,did not reveal a significant NAC effect
same,Time of delivery after saline injection,"C57B16 inbred mice [6]; NAC alone, no LPS, n=7",67.71 ± 5.8 h
lipopolysaccharide [LPS],Fetuses dead in utero,C57B16 inbred mice [4]; LPS group without NAC,63%
same,Vaginal stillbirth rate,C57B16 inbred mice [4]; LPS group without NAC,100%
same,Increase in extracellular O2− production in placentas,extracellular O2− [5]; LPS-injected animals at 3 hours,2.7 fold
